Source: patent US7732447B2, “Fused [d]pyridazin-7-ones” (Cephalon, Inc., priority 2006, dated 2010)

Tests used:
[1] = target: CDK5/GST-p25 (Homo sapiens, UniProt Q00535); assay: Cyclin-Dependent Kinase 5 inhibition assay (TRF); format: biochemical; conditions: 10 μM ATP; read-out: CDK-5 IC50
Method: Compounds were tested for their ability to inhibit the kinase activity of baculovirus-expressed cyclin-dependent kinase-5 complexed with GST-p25 (CDK5/GST-p25) using a a TRF detection system. Each 96-well Costar high binding plate (Corning Costar #3922, Corning, N.Y.) was coated with 100 μL/well of 50 μg/mL recombinant GST-tagged substrate [GST-retinoblastoma protein (Rb) Lot # 5.1A] in TBS. The CDK5/GST-p25 assay mixture (total volume=100 μL/well) consisting of 20 mM HEPES, pH 7.2, 10 μM ATP, 10 mM MgCl2, 5 mM EGTA, 25 mM β-glycerophosphate, 0.1% BSA, 2.5% DMSO, and various concentrations of test compound were then added to the assay plate. Enzyme (2 ng/mL CDK5/GST-p25 Lot # p25/CD5-3) was added and the reaction was allowed to proceed at 37° C. for 20 minutes. Detection of the phosphorylated product was performed by adding 100 μL/well of phospho-Rb (Ser-780) antibody (Cell Signaling #9307, Beverly, Mass.) diluted 1:10,000 in antibody dilution buffer (0.1% BSA in TBS-T). After 1-hour incubation at room temperature, 100 μL/well of Eu—N1 labelled anti-rabbit antibody diluted 1:50,000 in antibody dilution buffer (PerkinElmer Life Sciences #AD0105, Boston, Mass.) was added. Incubation at room temperature then proceeded for 1 hour, followed by addition of 100 μl enhancement solution (PerkinElmer Life Sciences #1244-105, Boston, Mass.). The plate was gently agitated and after a few minutes, the fluorescence of the resulting solution was measured using the PerkinElmer EnVision 2100 (or 2102) multilabel plate reader.

[2] = target: T1, MLK1 (GST-MLK1KD) (Homo sapiens, UniProt P80192); assay: Mixed Lineage Kinase-1 inhibition assay (32P, myelin basic protein); format: biochemical; conditions: 60 μM ATP; for inhibition at 1 µM: 1 uM compound, read-out: MLK-1 % inhibition @ 1 uM; for IC50: read-out: MLK-1 IC50
T1 construct: 1 μg/mL of baculoviral GST-MLK1KD (Lot 23.1A); GST; made in house
T1 sequence (P80192 144-412 limits assumed, species assumed): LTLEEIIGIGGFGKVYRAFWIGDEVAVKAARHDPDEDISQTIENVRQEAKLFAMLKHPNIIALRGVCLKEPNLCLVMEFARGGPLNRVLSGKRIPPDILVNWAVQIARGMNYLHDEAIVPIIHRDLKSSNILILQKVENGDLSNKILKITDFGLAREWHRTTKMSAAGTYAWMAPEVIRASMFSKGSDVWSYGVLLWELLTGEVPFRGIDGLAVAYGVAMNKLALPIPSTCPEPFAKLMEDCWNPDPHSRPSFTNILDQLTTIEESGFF
Method: The activity assay for MLK1 was performed using the 96-well Millipore Multiscreen plate format. Each 50-μL assay mixture contained 50 mM HEPES (pH 7.0), 1 mM EGTA, 10 mM MgCl2, 1 mM DTT, 25 mM β-glycerophosphate, 60 μM ATP, 1 μCi [γ-^32P]ATP, 0.1% BSA, 500 μg/mL myelin basic protein (Upstate #13-104), 2% DMSO, various concentrations of test compound, and 1 μg/mL of baculoviral GST-MLK1KD (Lot 23.1A). Samples were incubated for 15 minutes at 37° C. The reaction was stopped by adding ice-cold 50% trichloroacetic acid (TCA) and the proteins were allowed to precipitate for 30 minutes at 4° C. The plates were then washed with ice-cold 25% TCA. Supermix scintillation cocktail was added, and the plates were allowed to equilibrate for 1-2 hours prior to counting in the Wallac MicroBeta 1450 Plus scintillation counter.

[3] = target: T2, vascular endothelial growth factor receptor-2 (VEGFR2) cytoplasmic domain (Homo sapiens, UniProt P35968); assay: Vascular Endothelial Growth Factor Receptor-2 kinase inhibition assay (TRF); format: biochemical; conditions: 300 nM compound; 40 μM ATP; read-out: VEGFR-2 % inhibition @ 300 nM
T2 construct: recombinant baculovirus-expressed vascular endothelial growth factor receptor-2 (VEGFR2) cytoplasmic domain; made in house
T2 sequence (P35968 786-1356 limits assumed, species assumed): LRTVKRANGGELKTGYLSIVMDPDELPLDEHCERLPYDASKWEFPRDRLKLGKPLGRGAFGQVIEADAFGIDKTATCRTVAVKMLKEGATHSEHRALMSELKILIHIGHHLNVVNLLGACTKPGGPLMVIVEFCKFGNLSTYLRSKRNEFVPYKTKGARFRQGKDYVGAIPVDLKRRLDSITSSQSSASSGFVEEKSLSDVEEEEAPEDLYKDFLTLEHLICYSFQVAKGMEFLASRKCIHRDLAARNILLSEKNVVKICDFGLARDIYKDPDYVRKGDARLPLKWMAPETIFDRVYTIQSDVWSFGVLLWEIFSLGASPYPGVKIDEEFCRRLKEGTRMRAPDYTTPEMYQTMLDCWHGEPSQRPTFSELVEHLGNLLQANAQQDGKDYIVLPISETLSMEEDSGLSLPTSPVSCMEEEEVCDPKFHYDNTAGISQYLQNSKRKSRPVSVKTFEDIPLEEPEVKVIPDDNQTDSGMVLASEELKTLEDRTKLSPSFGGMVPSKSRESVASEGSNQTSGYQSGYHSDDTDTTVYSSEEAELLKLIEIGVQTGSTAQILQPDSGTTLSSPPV
Method: Compounds were tested for their ability to inhibit the kinase activity of recombinant baculovirus-expressed vascular endothelial growth factor receptor-2 (VEGFR2) cytoplasmic domain using the time-resolved fluorescence (TRF) detection system. IC50s were conducted in 96-well Costar high binding plates (Corning Costar #3922, Corning, N.Y.). Briefly, each 96-well plate was coated with 100 μL/well of 10 μg/mL recombinant substrate, glutathione S-transferase-phospholipase C-γ fusion protein (GST-PLCγ Lot # 3P5.1A), in Tris-buffered saline (TBS). The VEGFR2 assay mixture (total volume=100 μL/well) consisting of 20 mM HEPES, pH 7.2, 40 μM ATP, 10 mM MnCl2, 0.1% bovine serum albumin (BSA), and test compound (diluted in DMSO; 2.5% DMSO final in assay) was then added to the assay plate. Enzyme (30 ng/mL VEGFR2 Lot # V2g-2.1A) was added and the reaction was allowed to proceed at 37° C. for 15 minutes. Detection of the phosphorylated product was performed by adding 100 μL/well of Eu-N1 labeled PY100 antibody (PerkinElmer Life Sciences #AD0160, Boston, Mass.) diluted 1:5000 in 0.25% BSA in TBS containing 0.05% Tween-20 (TBS-T). Incubation at 37° C. then proceeded for 1 hour, followed by addition of 100 μL enhancement solution (PerkinElmer Life Sciences #1244-105, Boston, Mass.). The plate was gently agitated and after 30 minutes, the fluorescence of the resulting solution was measured using the PerkinElmer EnVision 2100 (or 2102) multilabel plate reader.

Chain of CDK5/GST-p25 (Q00535 whole entry, species assumed): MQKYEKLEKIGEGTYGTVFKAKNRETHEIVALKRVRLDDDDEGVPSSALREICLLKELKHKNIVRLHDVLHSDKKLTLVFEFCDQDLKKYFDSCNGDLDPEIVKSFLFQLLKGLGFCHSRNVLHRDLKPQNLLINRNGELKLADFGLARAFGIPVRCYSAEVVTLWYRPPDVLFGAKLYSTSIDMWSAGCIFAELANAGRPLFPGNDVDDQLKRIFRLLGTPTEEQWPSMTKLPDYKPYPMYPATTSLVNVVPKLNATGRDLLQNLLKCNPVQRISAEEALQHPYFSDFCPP
Chain of CDK5/GST-p25 (Q15078 99-307 partner limits assumed, species assumed): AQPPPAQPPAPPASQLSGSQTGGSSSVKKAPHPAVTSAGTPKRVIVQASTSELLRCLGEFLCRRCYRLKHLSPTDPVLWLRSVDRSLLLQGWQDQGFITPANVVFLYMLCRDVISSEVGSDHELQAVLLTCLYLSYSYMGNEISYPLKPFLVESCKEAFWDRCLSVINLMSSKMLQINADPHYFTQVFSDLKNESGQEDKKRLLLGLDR

| SMILES | IC50 [1] | melting point | inhibition at 1 µM [2] | IC50 [2] | inhibition at 0.3 µM [3] | inhibition at 0.3 µM ([2]; 300 nM compound, read-out: MLK-1 % inhibition (@300 nM)) |
| --- | --- | --- | --- | --- | --- | --- |
| COc1ccc2c(c1)[nH]c1c(-c3ccc(O)cc3)n[nH]c(=O)c12 [Example 4u, 4-(4-Hydroxy-phenyl)-7-methoxy-2,5-dihydro-pyridazino[4,5-b]indol-1-one] | 756 nM | > 300 °C |  |  |  |  |
| COc1ccc2c(c1)[nH]c1c(-c3ccc(OCc4ccccc4)cc3)n[nH]c(=O)c12 [Example 4t, 4-(4-Benzyloxy-phenyl)-7-methoxy-2,5-dihydro-pyridazino[4,5-b]indol-1-one] | > 1000 nM | > 300 °C |  |  |  |  |
| O=c1[nH]nc(-c2cc3ccccc3o2)c2[nH]c3ccccc3c12 [Example 4k, 4-Benzofuran-2-yl-2,5-dihydro-pyridazino[4,5-b]indol-1-one] |  |  | 41% | 2660 nM | 0% |  |
| COc1ccc(-c2n[nH]c(=O)c3c2[nH]c2ccccc23)cc1 [Example 4r, 4-(4-Methoxy-phenyl)-2,5-dihydro-pyridazino[4,5-b]indol-1-one] | > 1000 nM | > 300 °C |  |  |  |  |
| Cn1c2ccccc2c2c(=O)[nH]nc(-c3cc4ccccc4o3)c21 [Example 11a, 4-Benzofuran-2-yl-5-methyl-2,5-dihydro-pyridazino[4,5-b]indol-1-one] |  |  | 19% |  | 0% |  |
| O=c1[nH]nc(-c2ccc3ccccc3c2)c2c1[nH]c1ccccc12 [Example 14c, 1-Naphthalen-2-yl-3,5-dihydro-pyridazino[4,5-b]indol-4-one] |  |  | 12% |  | 1% |  |
| Cn1c2ccccc2c2c(=O)[nH]nc(-c3ccc4ccccc4c3)c21 [Example 11c, 5-Methyl-4-naphthalen-2-yl-2,5-dihydro-pyridazino[4,5-b]indol-1-one] |  |  | 0% |  | 3% |  |
| O=c1[nH]nc(-c2cccnc2)c2[nH]c3ccccc3c12 [Example 4c, 4-Pyridin-3-yl-2,5-dihydro-pyridazino[4,5-b]indol-1-one] |  |  | 0% |  | 14% |  |
| Cn1c2ccccc2c2c(=O)[nH]nc(-c3cc4ccccc4s3)c21 [Example 11b, 4-Benzo[b]thiophen-2-yl-5-methyl-2,5-dihydro-pyridazino[4,5-b]indol-1-one] |  |  | 0% |  | 0% |  |
| Cn1ccnc1-c1n[nH]c(=O)c2c1[nH]c1ccccc12 [Example 4g, 4-(1-Methyl-1H-imidazol-2-yl)-2,5-dihydro-pyridazino[4,5-b]indol-1-one] |  |  | 2% |  | 0% |  |
| Cc1ccc(-c2n[nH]c(=O)c3c2[nH]c2ccccc23)o1 [Example 4e, 4-(5-Methyl-furan-2-yl)-2,5-dihydro-pyridazino[4,5-b]indol-1-one] |  |  | 10% |  | 4% |  |
| O=c1[nH]nc(-c2ccncc2)c2[nH]c3ccccc3c12 [Example 4d, 4-Pyridin-4-yl-2,5-dihydro-pyridazino[4,5-b]indol-1-one] | 3820 nM |  | 0% |  | 18% |  |
| O=c1[nH]nc(-c2ccccn2)c2[nH]c3ccccc3c12 [Example 4b, 4-Pyridin-2-yl-2,5-dihydro-pyridazino[4,5-b]indol-1-one] |  |  | 0% |  | 7% |  |
| O=c1[nH]nc(-c2cc3ccccc3o2)c2[nH]c3cc4c(cc3c12)OCO4 [Example 4m, 8-Benzofuran-2-yl-6,9-dihydro-1,3-dioxa-6,7,9-triaza-cyclopenta[b]fluoren-5-one] |  |  | 46% |  | 0% |  |
| Cn1c(-c2n[nH]c(=O)c3c2[nH]c2ccccc23)nc2ccccc21 [Example 4h, 4-(1-Methyl-1H-benzoimidazol-2-yl)-2,5-dihydro-pyridazino[4,5-b]indol-1-one] |  |  | 0% |  | 0% |  |
| O=c1[nH]nc(-c2cc3ccccc3s2)c2c1[nH]c1ccccc12 [Example 14b, 1-Benzo[b]thiophen-2-yl-3,5-dihydro-pyridazino[4,5-b]indol-4-one] |  |  | 0% |  | 3% |  |
| O=c1[nH]nc(-c2cc3ccccc3o2)c2[nH]c3cccc(OCc4ccccc4)c3c12 [Example 4n, 4-Benzofuran-2-yl-9-benzyloxy-2,5-dihydro-pyridazino[4,5-b]indol-1-one] |  |  | 44% |  | 2% |  |
| O=c1[nH]nc(-c2ccncc2)c2[nH]c3ccc([N+](=O)[O-])cc3c12 [Example 4v, 8-Nitro-4-pyridin-4-yl-2,5-dihydro-pyridazino[4,5-b]indol-1-one] | > 3000 nM |  |  |  |  |  |
| O=c1[nH]nc(-c2nccs2)c2[nH]c3ccccc3c12 [Example 4f, 4-Thiazo-2-yl-2,5-dihydro-pyridazino[4,5-b]indol-1-one] |  |  | 5% |  | 0% |  |
| COc1ccc2[nH]c3c(-c4cc5ccccc5o4)n[nH]c(=O)c3c2c1 [Example 4l, 4-Benzofuran-2-yl-8-methoxy-2,5-dihydro-pyridazino[4,5-b]indol-1-one] |  |  | 53% | 1020 nM | 9% |  |
| O=c1[nH]nc(-c2cc3ccccc3o2)c2[nH]c3cc(OCc4ccccc4)ccc3c12 [Example 4p, 4-Benzofuran-2-yl-7-benzyloxy-2,5-dihydro-pyridazino[4,5-b]indol-1-one] |  |  | 0% |  | 14% |  |
| O=c1[nH]nc(-c2cc3ccccc3o2)c2[nH]c3ccc(OCc4ccccc4)cc3c12 [Example 4o, 4-Benzofuran-2-yl-8-benzyloxy-2,5-dihydro-pyridazino[4,5-b]indol-1-one] |  |  | 73% | 381 nM | 10% |  |
| O=c1[nH]nc(-c2ccc(O)cc2)c2c1[nH]c1ccccc12 [Example 14e, 1-(4-Hydroxy-phenyl)-3,5-dihydro-pyridazino[4,5-b]indol-4-one] | > 3000 nM |  |  |  |  |  |
| O=c1[nH]nc(-c2ccc(-c3ccccc3)cc2)c2[nH]c3ccccc3c12 [Example 4i, 4-Biphenyl-4-yl-2,5-dihydro-pyridazino[4,5-b]indol-1-one] |  |  | 14% |  | 16% |  |
| O=c1[nH]nc(-c2ccc(O)cc2)c2[nH]c3ccccc3c12 [Example 4s, 4-(4-Hydroxy-phenyl)-2,5-dihydro-pyridazino[4,5-b]indol-1-one] | 657 nM | > 300 °C |  |  |  |  |
| O=c1[nH]nc(-c2cc3ccccc3o2)c2[nH]c3ccc(O)cc3c12 [Example 4q, 4-Benzofuran-2-yl-8-hydroxy-2,5-dihydro-pyridazino[4,5-b]indol-1-one] |  |  |  | 138 nM | 21% | 67% |
| O=c1[nH]nc(-c2cnc3ccccc3n2)c2[nH]c3ccccc3c12 [Example 4j, 4-Quinoxalin-2-yl-2,5-dihydro-pyridazino[4,5-b]indol-1-one] |  |  | 0% |  | 0% |  |
